Results taken from US20100234221A1, “USE OF TETRAMIC ACID DERIVATIVES WITH FERTILIZERS” (BAYER CROPSCIENCE AG, priority 2006, published 2010).

What was measured:
Aphis gossypii = test: Use Example A: field plots of cotton sprayed against Aphis gossypii; assay type: in vivo; conditions: cotton FM966LL field plots, I-4 44 g of a.i./ha, Dyne-amic 0.455 % (v/v), UAN 0.7 % (v/v) where added
Protocol: In three replications, plots of a size of about 66 m^2 with cotton of the cultivar FM966LL are treated against Aphis gossypii. Here, the active compound I-4 (as 1500D formulation) is applied with a sprayer (High Clearance Sprayer, High Boy) at the stated application rates. The amount of water applied is about 150 l/ha. An adjuvant and/or a fertilizer (UAN=ammonium nitrate/urea solution with 28% by weight of nitrogen) are added to the spray liquor at the stated concentration. Here, it becomes evident that the composition according to the invention is equivalent to a composition comprising an adjuvant known to be efficient.

[1] = test system: cotton aphids (Aphis gossypii); test: Example B-1: spray treatment of cotton plants heavily infested by cotton aphids; assay type: in vivo; conditions: AHL or NH4NO3 12.5 g/l, RME 1 g ai/l where added
Protocol: To prepare a suitable product solution, 1 part by weight of formulated goods (for example an oil suspension OD 150 prepared according to known methods) is mixed with water to give the desired concentration. The desired fertilizer or penetrant is added in a defined amount and mixed in well.
Cotton plants (Gossypium herbaceum) which are heavily infested by the cotton aphids (Aphis gossypii) are treated by spraying with the product solution at the desired concentration.
After the desired period of time, the kill in % is determined. Here, 100% means that all aphids have been killed; 0% means that none of the aphids have been killed.

Compound: CCOC(=O)OC1=C(c2cc(C)ccc2C)C(=O)N[C@]12CC[C@@H](OC)CC2 [Compound I-4]
- Effect (% Abbott) After 2 days (Aphis gossypii; after 2 days): 66.7 % Abbott
- Effect (% Abbott) After 5 days (Aphis gossypii; after 5 days): 65.8 % Abbott
- Effect (% Abbott) After 9 days (Aphis gossypii; after 9 days): 13.9 % Abbott
- Kill in % after 7d ([1]; I-4 0.96 g ai/ha): 25%
- Kill in % after 7d ([1]; I-4 4.8 g ai/ha): 90%
